Values quoted from earlier work in patent US20170247366A1, “SUBSTITUTED 4-ALKOXYPICOLINAMIDE ANALOGS AS MGLUR5 NEGATIVE ALLOSTERIC MODULATORS AND METHODS OF MAKING AND USING THE SAME” (VANDERBILT UNIVERSITY, priority 2014, published 2017).

Assays:
[1] = test system: N-methyl-D-aspartate (NMDA) receptor; settings: at higher concentrations; cited from earlier work
mGluR4 = mGluR4 (Homo sapiens, UniProt Q14833); settings: cited from earlier work
marble burying in mice = settings: cited from earlier work
cytochrome P450 1A2 = target: T1, cytochrome P450 1A2 (Homo sapiens, UniProt P05177); settings: cited from earlier work
T1 sequence (P05177 1-516): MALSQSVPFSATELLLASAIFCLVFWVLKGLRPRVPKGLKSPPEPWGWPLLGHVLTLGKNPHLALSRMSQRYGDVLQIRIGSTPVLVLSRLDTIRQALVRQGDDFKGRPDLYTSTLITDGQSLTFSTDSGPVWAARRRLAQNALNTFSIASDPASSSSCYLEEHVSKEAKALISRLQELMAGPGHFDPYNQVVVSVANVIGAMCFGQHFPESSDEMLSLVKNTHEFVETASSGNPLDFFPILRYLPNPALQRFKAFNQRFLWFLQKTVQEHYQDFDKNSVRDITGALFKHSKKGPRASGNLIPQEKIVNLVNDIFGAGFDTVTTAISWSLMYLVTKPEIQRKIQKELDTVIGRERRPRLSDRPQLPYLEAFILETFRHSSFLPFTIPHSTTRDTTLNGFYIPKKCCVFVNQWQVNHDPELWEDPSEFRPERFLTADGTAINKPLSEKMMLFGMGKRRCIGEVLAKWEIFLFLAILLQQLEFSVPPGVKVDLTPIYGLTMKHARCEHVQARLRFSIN

[2] = intravenous administration to rhesus monkeys; cited from earlier work

mGluR4, sequence (Q14833 33-912): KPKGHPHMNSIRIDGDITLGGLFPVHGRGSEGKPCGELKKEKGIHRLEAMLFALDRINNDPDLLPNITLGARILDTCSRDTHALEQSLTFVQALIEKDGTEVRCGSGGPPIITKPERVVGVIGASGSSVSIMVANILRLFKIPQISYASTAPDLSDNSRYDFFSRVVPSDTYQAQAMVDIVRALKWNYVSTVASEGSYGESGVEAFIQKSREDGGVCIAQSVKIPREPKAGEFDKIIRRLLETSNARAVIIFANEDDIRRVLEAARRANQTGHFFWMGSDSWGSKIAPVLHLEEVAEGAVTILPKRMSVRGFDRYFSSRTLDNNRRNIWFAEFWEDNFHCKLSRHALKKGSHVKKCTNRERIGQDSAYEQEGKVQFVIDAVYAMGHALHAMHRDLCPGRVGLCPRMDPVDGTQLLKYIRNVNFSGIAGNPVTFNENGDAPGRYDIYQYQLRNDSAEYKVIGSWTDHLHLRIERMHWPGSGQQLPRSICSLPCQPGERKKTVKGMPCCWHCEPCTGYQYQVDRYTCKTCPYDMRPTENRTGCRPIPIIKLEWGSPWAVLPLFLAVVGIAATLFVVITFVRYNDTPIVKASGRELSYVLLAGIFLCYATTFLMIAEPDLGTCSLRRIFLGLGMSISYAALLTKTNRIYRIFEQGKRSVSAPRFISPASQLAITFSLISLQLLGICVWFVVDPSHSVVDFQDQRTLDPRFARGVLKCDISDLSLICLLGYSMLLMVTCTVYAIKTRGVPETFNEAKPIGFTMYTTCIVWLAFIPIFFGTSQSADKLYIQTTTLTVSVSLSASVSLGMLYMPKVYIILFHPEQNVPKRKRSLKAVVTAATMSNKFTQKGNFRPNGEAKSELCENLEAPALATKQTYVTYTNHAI

Structure (SMILES): Cc1cccc(C#Cc2ccccc2)n1 [MPEP, 2-methyl-6-(phenylethynyl) pyridine]
- NMDA receptor activity inhibition [1]: directly inhibit
- Activity at mGluR4 (mGluR4): positive allosteric modulator
- Efficacy in marble burying model (marble burying in mice): effective

Structure (SMILES): Cc1nc(C#Cc2cccnc2)cs1 [MTEP, 3-[(2-methyl-1,3-thiazol-4-yl)ethynyl]pyridine]
- Inhibition of cytochrome P450 1A2 (cytochrome P450 1A2): potent inhibitor
- Clearance [2]: efficiently cleared

Structure (SMILES): CN1CC(=O)N=C1NC(=O)Nc1cccc(Cl)c1 [fenobam, 1-(3-chlorophenyl)-3-(1-methyl-4-oxo-4,5-dihydro-1H-imidazol-2-yl)urea]
- Efficacy in marble burying model (marble burying in mice): effective
